# From patent publication US11446287B2, “Compounds and methods for EP300 or CBP modulation and indications therefor” (Opna Immuno-Oncology SA, priority 2019, dated 2022)
# Biological target: T1, Recombinant human BRD4 containing dual bromodomains (BRD4-BD12 (1-477)) (Homo sapiens, UniProt O60885)
# T1 construct: Recombinant human BRD4 containing dual bromodomains (BRD4-BD12 (1-477)); made in house; host or cells: E. coli BL21-CodonPlus (DE3), modified pET vector
# Experiment: BRD4 Alphascreen binding assay
# Outline: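 His-tagged human BRD4 tandem bromodomains (1-477, E. coli) incubated 1 h at room temperature with biotinylated tetra-acetylated H4 (1-21) peptide and compound in HEPES pH 7.5 buffer with 2 mM DTT. AlphaScreen signal read 30 min after adding beads (7.5 μg/ml); IC50 from four-parameter fit after normalization to controls.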
row,SMILES,IC50
1,"Cc1noc(C)c1-c1cnc2c(c1)c(-c1ccc(C(=O)O)cc1Cl)cn2C(c1ccccn1)C1CCCC1 (stereo not drawn) [P-0027, 3-chloro-4-(1-(cyclopentyl(pyridin-2-yl)methyl)-5-(3,5-dimethylisoxazol-4-yl)-1H-pyrrolo[2,3-b]pyridin-3-yl)benzoic acid]",1 to 8 µM
2,"Cc1cc(-c2cn(C(c3ccccn3)C3CCCC3)c3ncc(-c4c(C)noc4C)cc23)ccc1C(=O)O (stereo not drawn) [P-0028, 4-(1-(cyclopentyl(pyridin-2-yl)methyl)-5-(3,5-dimethylisoxazol-4-yl)-1H-pyrrolo[2,3-b]pyridin-3-yl)-2-methylbenzoic acid]",1 to 8 µM
3,"Cc1noc(C)c1-c1cnc2c(c1)c(-c1ccc(C(=O)O)c(C(F)(F)F)c1)cn2C(c1ccccn1)C1CCCC1 (stereo not drawn) [P-0029, 4-(1-(cyclopentyl(pyridin-2-yl)methyl)-5-(3,5-dimethylisoxazol-4-yl)-1H-pyrrolo[2,3-b]pyridin-3-yl)-2-(trifluoromethyl)benzoic acid]",1 to 8 µM
4,"Cc1noc(C)c1-c1cnc2c(c1)c(-c1ccc(C(=O)O)c(O)c1)cn2C(c1ccccn1)C1CCCC1 (stereo not drawn) [P-0030, 4-(1-(cyclopentyl(pyridin-2-yl)methyl)-5-(3,5-dimethylisoxazol-4-yl)-1H-pyrrolo[2,3-b]pyridin-3-yl)-2-hydroxybenzoic acid]",8 to 1000 µM
5,"Cc1noc(C)c1-c1cnc2c(c1)c(-c1ccc(CC(=O)O)cc1)cn2C(c1ccccn1)C1CCCC1 (stereo not drawn) [P-0031, 2-(4-(1-(cyclopentyl(pyridin-2-yl)methyl)-5-(3,5-dimethylisoxazol-4-yl)-1H-pyrrolo[2,3-b]pyridin-3-yl)phenyl)acetic acid]",1 to 8 µM
6,"Cc1noc(C)c1-c1cnc2c(c1)c(-c1ccc(C(C)(C)C(=O)O)cc1)cn2C(c1ccccn1)C1CCCC1 (stereo not drawn) [P-0032, 2-(4-(1-(cyclopentyl(pyridin-2-yl)methyl)-5-(3,5-dimethylisoxazol-4-yl)-1H-pyrrolo[2,3-b]pyridin-3-yl)phenyl)-2-methylpropanoic acid]",1 to 8 µM
7,"Cc1noc(C)c1-c1cnc2c(c1)c(-c1ccc(C3(C(=O)O)CC3)cc1)cn2C(c1ccccn1)C1CCCC1 (stereo not drawn) [P-0033, 1-(4-(1-(cyclopentyl(pyridin-2-yl)methyl)-5-(3,5-dimethylisoxazol-4-yl)-1H-pyrrolo[2,3-b]pyridin-3-yl)phenyl)cyclopropane-1-carboxylic acid]",1 to 8 µM
8,"Cc1noc(C)c1-c1cnc2c(c1)c(-c1ccc(C(F)(F)C(=O)O)cc1)cn2C(c1ccccn1)C1CCCC1 (stereo not drawn) [P-0034, 2-(4-(1-(cyclopentyl(pyridin-2-yl)methyl)-5-(3,5-dimethylisoxazol-4-yl)-1H-pyrrolo[2,3-b]pyridin-3-yl)phenyl)-2,2-difluoroacetic acid]",1 to 8 µM
9,"COc1ncccc1-n1cc(-c2ccc(C(=O)O)cc2OC(F)(F)F)c2cc(-c3c(C)noc3C)cnc21 [P-0316, 4-(5-(3,5-dimethylisoxazol-4-yl)-1-(2-methoxypyridin-3-yl)-1H-pyrrolo[2,3-b]pyridin-3-yl)-3-(trifluoromethoxy)benzoic acid]",1 to 8 µM
10,"Cc1ncccc1-n1cc(-c2ccc(C(=O)O)cc2OC(F)(F)F)c2cc(-c3c(C)noc3C)cnc21 [P-0317, 4-(5-(3,5-dimethylisoxazol-4-yl)-1-(2-methylpyridin-3-yl)-1H-pyrrolo[2,3-b]pyridin-3-yl)-3-(trifluoromethoxy)benzoic acid]",8 to 1000 µM
11,"Cc1noc(C)c1-c1cnc2c(c1)c(-c1ccc(C(=O)O)cc1OC(F)(F)F)cn2-c1cnn(C)c1 [P-0318, 4-(5-(3,5-dimethylisoxazol-4-yl)-1-(1-methyl-1H-pyrazol-4-yl)-1H-pyrrolo[2,3-b]pyridin-3-yl)-3-(trifluoromethoxy)benzoic acid]",0.0001 to 1 µM
12,"Cc1noc(C)c1-c1cnc2c(c1)c(-c1ccc(C(=O)O)cc1OC(F)(F)F)cn2-c1cncnc1 [P-0319, 4-(5-(3,5-dimethylisoxazol-4-yl)-1-(pyrimidin-5-yl)-1H-pyrrolo[2,3-b]pyridin-3-yl)-3-(trifluoromethoxy)benzoic acid]",1 to 8 µM
13,"Cc1noc(C)c1-c1cnc2c(c1)c(-c1ccc(C(=O)O)cc1OC(F)(F)F)cn2-c1cnc(N)nc1 [P-0320, 4-(1-(2-aminopyrimidin-5-yl)-5-(3,5-dimethylisoxazol-4-yl)-1H-pyrrolo[2,3-b]pyridin-3-yl)-3-(trifluoromethoxy)benzoic acid]",1 to 8 µM
14,Cc1noc(C)c1-c1cnc2c(c1)c(-c1ccc(C(=O)O)cc1OC(F)(F)F)cn2-c1cnc(N(C)C)nc1 [P-0321],1 to 8 µM
15,"Cc1noc(C)c1-c1cnc2c(c1)c(-c1ccc(C(=O)O)cc1OC(F)(F)F)cn2-c1ccc(C(=O)O)cc1 [P-0322, 4-(1-(4-carboxyphenyl)-5-(3,5-dimethylisoxazol-4-yl)-1H-pyrrolo[2,3-b]pyridin-3-yl)-3-(trifluoromethoxy)benzoic acid]",1 to 8 µM
16,"Cc1noc(C)c1-c1cnc2c(c1)c(-c1ccc(C(=O)O)cc1OC(F)(F)F)cn2-c1ccc(C(N)=O)cc1 [P-0323, 4-(1-(4-carbamoylphenyl)-5-(3,5-dimethylisoxazol-4-yl)-1H-pyrrolo[2,3-b]pyridin-3-yl)-3-(trifluoromethoxy)benzoic acid]",1 to 8 µM
17,"COc1cc(C(=O)O)ncc1-c1cn(-c2ccncc2Cl)c2ncc(-c3c(C)noc3C)cc12 [P-0324, 5-(1-(3-chloropyridin-4-yl)-5-(3,5-dimethylisoxazol-4-yl)-1H-pyrrolo[2,3-b]pyridin-3-yl)-4-methoxypicolinic acid]",1 to 8 µM
18,"Cc1noc(C)c1-c1cnc2c(c1)c(-c1ccc(C(=O)O)cc1OCC(F)F)cn2[C@H]1CCOC1 [P-0325, (S)-3-(2,2-difluoroethoxy)-4-(5-(3,5-dimethylisoxazol-4-yl)-1-(tetrahydrofuran-3-yl)-1H-pyrrolo[2,3-b]pyridin-3-yl)benzoic acid]",8 to 1000 µM
19,"CCn1cc(-n2cc(-c3ccc(C(=O)O)cc3OCC(F)F)c3cc(-c4c(C)noc4C)cnc32)c(C)n1 [P-0326, 3-(2,2-difluoroethoxy)-4-(5-(3,5-dimethylisoxazol-4-yl)-1-(1-ethyl-3-methyl-1H-pyrazol-4-yl)-1H-pyrrolo[2,3-b]pyridin-3-yl)benzoic acid]",8 to 1000 µM
20,"Cc1noc(C)c1-c1cnc2c(c1)c(-c1c(F)cc(C(=O)O)cc1OCC(F)F)cn2-c1ccccc1 [P-0327, 3-(2,2-difluoroethoxy)-4-(5-(3,5-dimethylisoxazol-4-yl)-1-phenyl-1H-pyrrolo[2,3-b]pyridin-3-yl)-5-fluorobenzoic acid]",1 to 8 µM
21,"Cc1noc(C)c1-c1cnc2c(c1)c(-c1ccc(C(=O)O)cc1OCC(F)F)cn2-c1cnc(N2CCC2)nc1 [P-0328, 4-(1-(2-(azetidin-1-yl)pyrimidin-5-yl)-5-(3,5-dimethylisoxazol-4-yl)-1H-pyrrolo[2,3-b]pyridin-3-yl)-3-(2,2-difluoroethoxy)benzoic acid]",8 to 1000 µM
22,"CCOc1cc(C(=O)O)nc(OCC)c1-c1cn(-c2ccc(F)cc2F)c2ncc(-c3c(C)noc3C)cc12 [P-0329, 5-(1-(2,4-difluorophenyl)-5-(3,5-dimethylisoxazol-4-yl)-1H-pyrrolo[2,3-b]pyridin-3-yl)-4,6-diethoxypicolinic acid]",1 to 8 µM
23,"CCOc1cc(C(=O)O)c(F)cc1-c1cn(-c2ccc(F)cc2F)c2ncc(-c3c(C)noc3C)cc12 [P-0330, 4-(1-(2,4-difluorophenyl)-5-(3,5-dimethylisoxazol-4-yl)-1H-pyrrolo[2,3-b]pyridin-3-yl)-5-ethoxy-2-fluorobenzoic acid]",1 to 8 µM
24,"Cc1noc(C)c1-c1cnc2c(c1)c(-c1c(Cl)cc(C(=O)O)cc1OCC(F)F)cn2-c1cnc(N2CCC2)nc1 [P-0331, 4-(1-(2-(azetidin-1-yl)pyrimidin-5-yl)-5-(3,5-dimethylisoxazol-4-yl)-1H-pyrrolo[2,3-b]pyridin-3-yl)-3-chloro-5-(2,2-difluoroethoxy)benzoic acid]",0.0001 to 1 µM
25,"Cc1noc(C)c1-c1cnc2c(c1)c(-c1c(Cl)cc(C(=O)O)cc1OCC(F)F)cn2-c1ccccc1 [P-0332, 3-chloro-5-(2,2-difluoroethoxy)-4-(5-(3,5-dimethylisoxazol-4-yl)-1-phenyl-1H-pyrrolo[2,3-b]pyridin-3-yl)benzoic acid]",1 to 8 µM
26,"Cc1noc(C)c1-c1cnc2c(c1)c(-c1c(Cl)cc(C(=O)O)cc1OCC(F)F)cn2[C@H]1CCOC1 [P-0333, (S)-3-chloro-5-(2,2-difluoroethoxy)-4-(5-(3,5-dimethylisoxazol-4-yl)-1-(tetrahydrofuran-3-yl)-1H-pyrrolo[2,3-b]pyridin-3-yl)benzoic acid]",8 to 1000 µM
27,"Cc1noc(C)c1-c1cnc2c(c1)c(-c1ccc(C(=O)O)cc1OC1CCC1)cn2-c1ncccc1C#N [P-0334, 4-(1-(3-cyanopyridin-2-yl)-5-(3,5-dimethylisoxazol-4-yl)-1H-pyrrolo[2,3-b]pyridin-3-yl)-3-cyclobutoxybenzoic acid]",8 to 1000 µM
28,"Cc1noc(C)c1-c1cnc2c(c1)c(-c1ccc(C(=O)O)cc1OC(F)(F)F)cn2C1(CC#N)CCC1 [P-0335, 4-(1-(1-(cyanomethyl)cyclobutyl)-5-(3,5-dimethylisoxazol-4-yl)-1H-pyrrolo[2,3-b]pyridin-3-yl)-3-(trifluoromethoxy)benzoic acid]",8 to 1000 µM
29,"Cc1noc(C)c1-c1cnc2c(c1)c(-c1ccc(C(=O)O)cc1OC(C)C)cn2-c1ncccc1C#N [P-0336, 4-(1-(3-cyanopyridin-2-yl)-5-(3,5-dimethylisoxazol-4-yl)-1H-pyrrolo[2,3-b]pyridin-3-yl)-3-isopropoxybenzoic acid]",8 to 1000 µM
30,"Cc1noc(C)c1-c1cnc2c(c1)c(-c1ccc(C(=O)O)cc1OC1CC1)cn2-c1ncccc1C#N [P-0337, 4-(1-(3-cyanopyridin-2-yl)-5-(3,5-dimethylisoxazol-4-yl)-1H-pyrrolo[2,3-b]pyridin-3-yl)-3-cyclopropoxybenzoic acid]",8 to 1000 µM
